# From ChEMBL document CHEMBL1129834, “A boronated benzamide as melanoma-seeking agent” (Bioorg Med Chem Lett, 1997)
# Experiments:
# [1] = Compound was evaluated for the biodistribution of tumor-imaging agent in B16 melanoma bearing mice brain upon intraveneous administration at 2.6 gmol/mice after 1 hour; type: ADME, organism-based; conditions: mus sp., in vivo, iv
# [2] = Compound was evaluated for the biodistribution of tumor-imaging agent in B16 melanoma bearing mice kidney upon intraveneous administration at 2.6 gmol/mice after 3 hour; type: ADME, organism-based; conditions: mus sp., in vivo, iv
# [3] = Compound was evaluated for the biodistribution of tumor-imaging agent in B16 melanoma bearing mice muscle upon intraveneous administration at 2.6 gmol/mice after 1 hour; type: ADME, organism-based, Muscle tissue; conditions: mus sp., in vivo, iv
# [4] = Compound was evaluated for the biodistribution of tumor-imaging agent in B16 melanoma bearing mice uvea upon intraveneous administration at 2.6 gmol/mice after 24 hour; type: ADME, organism-based, Uveal tract; conditions: mus sp., in vivo, iv
# [5] = Compound was evaluated for the biodistribution of tumor-imaging agent in B16 melanoma bearing mice liver upon intraveneous administration at 2.6 gmol/mice after 1 hour; type: ADME, organism-based; conditions: mus sp., in vivo, iv
# [6] = Compound was evaluated for the biodistribution of tumor-imaging agent in B16 melanoma bearing mice muscle upon intraveneous administration at 2.6 gmol/mice after 3 hour; type: ADME, organism-based, Muscle tissue; conditions: mus sp., in vivo, iv
# [7] = Compound was evaluated for the biodistribution of tumor-imaging agent in B16 melanoma bearing mice upon intraveneous administration at 2.6 gmol/mice after 24 hour; type: ADME, organism-based; conditions: mus sp., in vivo, iv
# [8] = Compound was evaluated for the biodistribution of tumor-imaging agent in B16 melanoma bearing mice blood upon intraveneous administration at 2.6 gmol/mice after 1 hour; type: ADME, organism-based; conditions: mus sp., in vivo, iv
# [9] = Compound was evaluated for the biodistribution of tumor-imaging agent in B16 melanoma bearing mice spleen upon intraveneous administration at 2.6 gmol/mice after 1 hour; type: ADME, organism-based; conditions: mus sp., in vivo, iv
# [10] = Compound was evaluated for the biodistribution of tumor-imaging agent in B16 melanoma bearing mice liver upon intraveneous administration at 2.6 gmol/mice after 24 hour; type: ADME, organism-based; conditions: mus sp., in vivo, iv
# [11] = Compound was evaluated for the biodistribution of tumor-imaging agent in B16 melanoma bearing mice brain upon intraveneous administration at 2.6 gmol/mice after 3 hour; type: ADME, organism-based; conditions: mus sp., in vivo, iv
# [12] = Compound was evaluated for the biodistribution of tumor-imaging agent in B16 melanoma bearing mice kidney upon intraveneous administration at 2.6 gmol/mice after 24 hour; type: ADME, organism-based; conditions: mus sp., in vivo, iv
# [13] = Compound was evaluated for the biodistribution of tumor-imaging agent in B16 melanoma bearing mice muscle upon intraveneous administration at 2.6 gmol/mice after 24 hour; type: ADME, organism-based, Muscle tissue; conditions: mus sp., in vivo, iv
# [14] = Compound was evaluated for the biodistribution of tumor-imaging agent in B16 melanoma bearing mice lungs upon intraveneous administration at 2.6 gmol/mice after 1 hour; type: ADME, organism-based; conditions: mus sp., in vivo, iv
# [15] = Compound was evaluated for the biodistribution of tumor-imaging agent in B16 melanoma bearing mice liver upon intraveneous administration at 2.6 gmol/mice after 3 hour; type: ADME, organism-based; conditions: mus sp., in vivo, iv
# [16] = Partition coefficient (logP); type: physicochemical; conditions: octanol/water
# [17] = Compound was evaluated for the biodistribution of tumor-imaging agent in B16 melanoma bearing mice kidney upon intraveneous administration at 2.6 gmol/mice after 1 hour; type: ADME, organism-based; conditions: mus sp., in vivo, iv
# [18] = Acute toxicity of compound in OF1 mice; type: organism-based; conditions: OF1, mouse, in vivo
# [19] = Compound was evaluated for the biodistribution of tumor-imaging agent in B16 melanoma bearing mice blood upon intraveneous administration at 2.6 gmol/mice after 3 hour; type: ADME, organism-based; conditions: mus sp., in vivo, iv
# [20] = Compound was evaluated for the biodistribution of tumor-imaging agent in B16 melanoma bearing mice lungs upon intraveneous administration at 2.6 gmol/mice after 3 hour; type: ADME, organism-based; conditions: mus sp., in vivo, iv
# [21] = Compound was evaluated for the biodistribution of tumor-imaging agent in B16 melanoma bearing mice uvea upon intraveneous administration at 2.6 gmol/mice after 3 hour; type: ADME, organism-based, Uveal tract; conditions: mus sp., in vivo, iv
# [22] = Compound was evaluated for the biodistribution of tumor-imaging agent in B16 melanoma bearing mice upon intraveneous administration at 2.6 gmol/mice after 1 hour; type: ADME, organism-based; conditions: mus sp., in vivo, iv
# [23] = Compound was evaluated for the biodistribution of tumor-imaging agent in B16 melanoma bearing mice upon intraveneous administration at 2.6 gmol/mice after 3 hour; type: ADME, organism-based; conditions: mus sp., in vivo, iv
# [24] = Compound was evaluated for the biodistribution of tumor-imaging agent in B16 melanoma bearing mice spleen upon intraveneous administration at 2.6 gmol/mice after 3 hour; type: ADME, organism-based; conditions: mus sp., in vivo, iv
compound,measurement,setting,value
CCN(CC)CCNC(=O)c1ccc(B2OCCCO2)cc1,Injected dose/g,[1],0.19%
same,Injected dose/g,[2],3.38%
same,Injected dose/g,[3],2.95%
same,Injected dose/g,[4],0.84%
same,Injected dose/g,[5],5.11%
same,Injected dose/g,[6],1.96%
same,Injected dose/g,[7],0.52%
same,Injected dose/g,[8],2.53%
same,Injected dose/g,[9],2.61%
same,Injected dose/g,[10],0.22%
same,Injected dose/g,[11],0.18%
same,Injected dose/g,[12],0.13%
same,Injected dose/g,[13],0.04%
same,Injected dose/g,[14],1.91%
same,Injected dose/g,[15],4.76%
same,logP,[16],-1
same,Injected dose/g,[17],4.88%
same,LD50,[18],1860 µmol/kg
same,Injected dose/g,[19],0.97%
same,Injected dose/g,[20],1.24%
same,Injected dose/g,[21],2.78%
same,Injected dose/g,[22],3.26%
same,Injected dose/g,[23],2.89%
same,Injected dose/g,[24],1.53%
